These results are taken from ChEMBL document CHEMBL3991601, “The target landscape of clinical kinase drugs” (Science, 2017).

Activity calls are given as the source filed them. Cut-off read from the data, not from the text of the source: actives have a measured Kd and inactives only a lower limit.

Assay [1] has as its target Ribosomal protein S6 kinase alpha-1 (Homo sapiens, UniProt Q15418).
In another assay the target is T1, Ephrin type-B receptor 4 (Homo sapiens, UniProt P54760).
T1 sequence (P54760 whole entry): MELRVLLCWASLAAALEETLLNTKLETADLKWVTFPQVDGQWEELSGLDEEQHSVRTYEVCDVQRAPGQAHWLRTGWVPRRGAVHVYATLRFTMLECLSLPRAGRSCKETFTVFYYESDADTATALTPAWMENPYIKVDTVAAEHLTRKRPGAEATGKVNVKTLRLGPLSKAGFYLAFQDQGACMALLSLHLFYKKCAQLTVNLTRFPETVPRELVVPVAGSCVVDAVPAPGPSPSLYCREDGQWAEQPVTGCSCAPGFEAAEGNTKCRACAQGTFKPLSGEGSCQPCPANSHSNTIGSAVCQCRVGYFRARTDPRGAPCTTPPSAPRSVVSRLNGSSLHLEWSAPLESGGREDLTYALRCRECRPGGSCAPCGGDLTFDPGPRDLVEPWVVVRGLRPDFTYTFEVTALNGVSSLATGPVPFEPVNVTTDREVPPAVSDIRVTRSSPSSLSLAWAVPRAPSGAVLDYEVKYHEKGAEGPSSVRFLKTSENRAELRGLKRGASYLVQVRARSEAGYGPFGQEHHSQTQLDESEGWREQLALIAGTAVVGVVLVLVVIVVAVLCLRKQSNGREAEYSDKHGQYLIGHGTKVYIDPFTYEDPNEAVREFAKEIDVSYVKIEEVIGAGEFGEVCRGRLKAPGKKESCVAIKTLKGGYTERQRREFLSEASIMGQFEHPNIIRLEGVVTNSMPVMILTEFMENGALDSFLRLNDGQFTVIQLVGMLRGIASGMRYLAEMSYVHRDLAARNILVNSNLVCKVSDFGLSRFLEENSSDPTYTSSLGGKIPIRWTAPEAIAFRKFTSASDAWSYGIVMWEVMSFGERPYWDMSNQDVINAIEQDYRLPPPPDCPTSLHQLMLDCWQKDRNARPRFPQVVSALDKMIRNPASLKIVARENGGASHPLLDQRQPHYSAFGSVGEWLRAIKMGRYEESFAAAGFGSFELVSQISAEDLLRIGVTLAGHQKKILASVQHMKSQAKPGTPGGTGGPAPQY

Assay [2] concerns the target T2, Ribosyldihydronicotinamide dehydrogenase [quinone] (Homo sapiens, UniProt P16083).
T2 sequence (P16083 whole entry): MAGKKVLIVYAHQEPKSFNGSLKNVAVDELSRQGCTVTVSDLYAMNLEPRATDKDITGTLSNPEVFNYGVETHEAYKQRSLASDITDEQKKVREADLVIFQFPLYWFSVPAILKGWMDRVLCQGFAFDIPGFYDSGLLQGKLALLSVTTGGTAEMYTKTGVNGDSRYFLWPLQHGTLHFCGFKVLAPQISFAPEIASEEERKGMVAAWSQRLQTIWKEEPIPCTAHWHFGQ

For assay [3], the target named is Dual specificity tyrosine-phosphorylation-regulated kinase 1A (Homo sapiens, UniProt Q13627).
The target of assay [4] is T3, Serine/threonine-protein kinase PLK4 (Homo sapiens, UniProt O00444).
T3 sequence (O00444 whole entry): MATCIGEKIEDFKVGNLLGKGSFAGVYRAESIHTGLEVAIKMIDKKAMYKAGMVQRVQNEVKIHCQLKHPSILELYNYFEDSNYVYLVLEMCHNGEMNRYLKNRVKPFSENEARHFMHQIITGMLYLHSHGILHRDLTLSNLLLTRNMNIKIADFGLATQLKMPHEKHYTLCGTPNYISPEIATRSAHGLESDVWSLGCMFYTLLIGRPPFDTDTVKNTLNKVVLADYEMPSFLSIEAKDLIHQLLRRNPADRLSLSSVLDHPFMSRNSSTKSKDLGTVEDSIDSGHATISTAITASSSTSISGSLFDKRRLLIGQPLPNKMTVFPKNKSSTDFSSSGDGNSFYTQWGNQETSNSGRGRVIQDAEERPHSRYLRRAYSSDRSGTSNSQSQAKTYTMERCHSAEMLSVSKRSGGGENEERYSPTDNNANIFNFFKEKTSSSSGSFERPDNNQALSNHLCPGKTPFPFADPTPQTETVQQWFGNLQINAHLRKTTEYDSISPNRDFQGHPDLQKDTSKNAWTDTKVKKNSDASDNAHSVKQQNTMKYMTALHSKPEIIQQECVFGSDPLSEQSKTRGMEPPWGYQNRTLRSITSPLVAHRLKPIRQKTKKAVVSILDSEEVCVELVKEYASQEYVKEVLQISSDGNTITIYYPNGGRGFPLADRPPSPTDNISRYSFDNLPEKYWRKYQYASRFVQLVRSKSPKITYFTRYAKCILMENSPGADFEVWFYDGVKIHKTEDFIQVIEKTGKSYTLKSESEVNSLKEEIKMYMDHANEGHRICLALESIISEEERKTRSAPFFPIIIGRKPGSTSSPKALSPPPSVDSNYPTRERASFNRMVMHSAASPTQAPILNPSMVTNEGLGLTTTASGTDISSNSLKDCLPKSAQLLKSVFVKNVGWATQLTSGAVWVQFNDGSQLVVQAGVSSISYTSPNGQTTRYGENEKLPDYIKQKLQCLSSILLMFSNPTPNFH

For assay [5], the target named is Serine/threonine-protein kinase B-raf (Homo sapiens, UniProt P15056).
Serine/threonine-protein kinase B-raf, sequence (P15056 whole entry): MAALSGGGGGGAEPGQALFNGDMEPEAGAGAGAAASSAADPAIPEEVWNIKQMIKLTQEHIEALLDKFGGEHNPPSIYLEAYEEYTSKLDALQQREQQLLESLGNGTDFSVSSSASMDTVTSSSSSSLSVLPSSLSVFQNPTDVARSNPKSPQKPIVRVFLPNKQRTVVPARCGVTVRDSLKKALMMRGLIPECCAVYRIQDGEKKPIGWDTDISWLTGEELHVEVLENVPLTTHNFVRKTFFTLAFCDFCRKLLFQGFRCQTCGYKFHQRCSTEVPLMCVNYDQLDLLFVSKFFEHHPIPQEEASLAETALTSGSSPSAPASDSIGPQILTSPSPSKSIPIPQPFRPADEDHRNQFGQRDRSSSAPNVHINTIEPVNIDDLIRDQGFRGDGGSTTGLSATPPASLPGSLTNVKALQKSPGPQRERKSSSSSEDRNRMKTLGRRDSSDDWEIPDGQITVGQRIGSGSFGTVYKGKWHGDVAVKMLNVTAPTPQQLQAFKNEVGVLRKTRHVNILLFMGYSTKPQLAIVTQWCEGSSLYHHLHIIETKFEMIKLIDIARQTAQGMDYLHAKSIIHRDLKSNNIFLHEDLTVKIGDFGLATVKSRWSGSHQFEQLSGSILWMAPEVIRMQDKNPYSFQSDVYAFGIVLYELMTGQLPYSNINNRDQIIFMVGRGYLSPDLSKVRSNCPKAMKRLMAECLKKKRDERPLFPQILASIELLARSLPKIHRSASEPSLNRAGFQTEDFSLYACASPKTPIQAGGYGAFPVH
Another assay addresses T4, TGF-beta receptor type-1 (Homo sapiens, UniProt P36897).
T4 sequence (P36897 whole entry): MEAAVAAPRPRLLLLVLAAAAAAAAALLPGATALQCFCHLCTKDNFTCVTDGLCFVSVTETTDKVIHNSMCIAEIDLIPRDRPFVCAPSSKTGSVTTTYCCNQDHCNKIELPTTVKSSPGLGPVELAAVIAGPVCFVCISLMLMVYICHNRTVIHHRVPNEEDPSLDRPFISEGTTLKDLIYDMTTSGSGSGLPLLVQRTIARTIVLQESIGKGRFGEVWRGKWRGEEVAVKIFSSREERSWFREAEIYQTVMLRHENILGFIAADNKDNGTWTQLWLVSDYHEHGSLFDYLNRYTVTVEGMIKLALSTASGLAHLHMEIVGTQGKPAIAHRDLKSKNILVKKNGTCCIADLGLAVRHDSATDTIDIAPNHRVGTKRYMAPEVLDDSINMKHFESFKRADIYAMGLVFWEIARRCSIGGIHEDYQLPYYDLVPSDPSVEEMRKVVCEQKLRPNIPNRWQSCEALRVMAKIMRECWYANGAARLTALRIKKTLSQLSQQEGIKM
Note: in the data inactive means no Kd found up to 30 µM.

Ribosomal protein S6 kinase alpha-1, sequence (Q15418 whole entry): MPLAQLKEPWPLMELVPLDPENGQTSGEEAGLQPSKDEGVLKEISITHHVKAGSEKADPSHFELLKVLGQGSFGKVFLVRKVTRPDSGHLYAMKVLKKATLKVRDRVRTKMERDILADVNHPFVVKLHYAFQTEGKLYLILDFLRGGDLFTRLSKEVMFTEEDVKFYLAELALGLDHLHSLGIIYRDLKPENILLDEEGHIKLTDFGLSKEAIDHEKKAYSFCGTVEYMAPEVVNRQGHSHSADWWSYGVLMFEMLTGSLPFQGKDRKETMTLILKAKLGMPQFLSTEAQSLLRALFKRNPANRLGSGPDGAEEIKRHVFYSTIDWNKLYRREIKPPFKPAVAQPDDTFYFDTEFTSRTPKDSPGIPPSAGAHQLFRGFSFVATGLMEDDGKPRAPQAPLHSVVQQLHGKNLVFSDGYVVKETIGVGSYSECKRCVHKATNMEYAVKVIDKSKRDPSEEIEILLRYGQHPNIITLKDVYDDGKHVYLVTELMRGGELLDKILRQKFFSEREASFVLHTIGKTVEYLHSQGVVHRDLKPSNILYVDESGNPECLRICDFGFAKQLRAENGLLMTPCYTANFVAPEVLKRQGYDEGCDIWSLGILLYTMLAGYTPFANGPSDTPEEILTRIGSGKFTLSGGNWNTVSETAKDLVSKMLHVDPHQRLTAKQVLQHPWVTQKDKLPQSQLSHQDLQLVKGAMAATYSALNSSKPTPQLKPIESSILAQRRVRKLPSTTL

As for `CC(C)Nc1cc(-c2c[nH]c(C(=O)N[C@H](CO)c3cccc(Cl)c3)c2)c(Cl)cn1` [ULIXERTINIB], the Kd (in assay [1]; at Ephrin type-B receptor 4; in assay [2]; in assay [3]; in assay [4]; in assay [5]) was > 30 µM (inactive) throughout. Moreover, the Kd at TGF-beta receptor type-1 was > 30 µM (inactive).
Consider `O=c1sn(-c2cccc3ccccc23)c(=O)n1Cc1ccccc1` [TIDEGLUSIB], for which the Kd (in assay [1]; at Ephrin type-B receptor 4; in assay [2]; in assay [3]; in assay [4]; in assay [5]) was > 30 µM (inactive) throughout. Moreover, the Kd on TGF-beta receptor type-1 was > 30 µM (inactive).
Take `Cc1ccc(-n2nc(C(C)(C)C)cc2NC(=O)NCc2cc(F)ccc2Oc2ccc3c(cnn3CCO)c2)cc1` [PEXMETINIB]: the Kd in assay [1] is > 30 µM (inactive); on Ephrin type-B receptor 4, 5.21 µM; in assay [2] it was > 30 µM (inactive); in assay [3], > 30 µM (inactive); in assay [4] it was > 30 µM (inactive); in assay [5] it was 5.23 µM (active). Further, the Kd on TGF-beta receptor type-1 was > 30 µM (inactive).
With `CCN1CCN(Cc2ccc(-c3cc4c(N[C@H](C)c5ccccc5)ncnc4[nH]3)cc2)CC1` [AEE-788], the Kd in assay [1] is > 30 µM (inactive); on Ephrin type-B receptor 4 it was 26.4 µM (active); in assay [2], > 30 µM (inactive); in assay [3], > 30 µM (inactive); in assay [4], > 30 µM (inactive); in assay [5], > 30 µM (inactive). Moreover, the Kd on TGF-beta receptor type-1 is > 30 µM (inactive).
As for `Cc1ccc(NC(=O)c2ccc(CN3CC[C@H](N(C)C)C3)c(C(F)(F)F)c2)cc1Nc1nccc(-c2cncnc2)n1` [BAFETINIB], the Kd in assay [1] is > 30 µM (inactive); on Ephrin type-B receptor 4, 1.3 µM (active); in assay [2] it was 6.87 µM; in assay [3] it was > 30 µM (inactive); in assay [4], > 30 µM (inactive); in assay [5], 1.14 µM (active). In addition, the Kd on TGF-beta receptor type-1 is > 30 µM (inactive).
Turning to `CN(C)C(=O)c1cc2cnc(Nc3ccc(N4CCNCC4)cn3)nc2n1C1CCCC1` [RIBOCICLIB], the Kd (in assay [1]; at Ephrin type-B receptor 4; in assay [2]; in assay [3]; in assay [4]; in assay [5]) was > 30 µM (inactive) in each case. Also, the Kd at TGF-beta receptor type-1 is > 30 µM (inactive).
As for `COCCNCc1ccc(-c2cc3nccc(Oc4ccc(NC(=S)NC(=O)Cc5ccc(F)cc5)cc4F)c3s2)nc1` [GLESATINIB], the Kd is > 30 µM (inactive) in assay [1]; > 30 µM (inactive) at Ephrin type-B receptor 4; > 30 µM (inactive) in assay [2]; > 30 µM (inactive) in assay [3]; 1.42 µM (active) in assay [4]; > 30 µM (inactive) in assay [5]. The Kd at TGF-beta receptor type-1 is > 30 µM (inactive).
With `Cn1cc(-c2ccc3nnc(C(F)(F)c4ccc5ncccc5c4)n3n2)cn1` [JNJ-38877605], the Kd is > 30 µM (inactive) in assay [1]; > 30 µM (inactive) at Ephrin type-B receptor 4; 0.323 µM (active) in assay [2]; > 30 µM (inactive) in assay [3]; > 30 µM (inactive) in assay [4]; > 30 µM (inactive) in assay [5]. Further, the Kd at TGF-beta receptor type-1 was > 30 µM (inactive).
Take `CC[C@H](Nc1ncnc2[nH]cnc12)c1nc2cccc(F)c2c(=O)n1-c1ccccc1` [IDELALISIB]: the Kd (in assay [1]; at Ephrin type-B receptor 4; in assay [2]; in assay [3]; in assay [4]; in assay [5]) was > 30 µM (inactive) throughout. The Kd at TGF-beta receptor type-1 was > 30 µM (inactive).
For `CN1CC[C@@H](c2c(O)cc(O)c3c(=O)cc(-c4ccccc4Cl)oc23)[C@@H]1CO`, the Kd (in assay [1]; at Ephrin type-B receptor 4; in assay [2]; in assay [3]; in assay [4]; in assay [5]) was > 30 µM (inactive) each time. For the same molecule, the Kd at TGF-beta receptor type-1 is > 30 µM (inactive).
For `CN1N=C(N)c2cn([C@@H]3O[C@H](COP(=O)(O)O)[C@@H](O)[C@H]3O)c3ncnc1c23` [TRICIRIBINE PHOSPHATE], the Kd (in assay [1]; on Ephrin type-B receptor 4; in assay [2]; in assay [3]; in assay [4]; in assay [5]) was > 30 µM (inactive) in each case. Also, the Kd on TGF-beta receptor type-1 is > 30 µM (inactive).
As to `O=C(c1ccc(F)c(F)c1Nc1ccc(I)cc1F)N1CC(O)([C@@H]2CCCCN2)C1` [COBIMETINIB], the Kd (in assay [1]; at Ephrin type-B receptor 4; in assay [2]; in assay [3]; in assay [4]; in assay [5]) was > 30 µM (inactive) throughout. Besides, on TGF-beta receptor type-1, the Kd was > 30 µM (inactive).
In the case of `Cc1cc(-c2cc(O)ccc2Cl)cc2nnc(Nc3ccc(OCCN4CCCC4)cc3)nc12`, the Kd in assay [1] was > 30 µM (inactive); on Ephrin type-B receptor 4 it was 0.0009 µM (active); in assay [2], > 30 µM (inactive); in assay [3], > 30 µM (inactive); in assay [4] it was > 30 µM (inactive); in assay [5] it was 0.003 µM (active). Moreover, the Kd at TGF-beta receptor type-1 was 0.002 µM (active).
